According to patent US6066340A, “Process for the preparation of microspheres containing biologically active components” (Fidia S.p.A., priority 1991, dated 2000):

Assay: GM1 plasma levels after intramuscular administration
Format: in vivo, New Zealand rabbits
Conditions: 2 mg/kg i.m.
Description: Microspheres of different dimensions of HYAFF-11 containing GM1 (10-40 μm) were prepared as described in Examples 29-30.
The ganglioside was administered by intramuscular route to groups of New Zealand rabbits (weighing 2.5 kg) at a concentration of 2 mg/kg.
At the set times, 2.5 ml of blood was withdrawn from the median artery of the ear. Each blood sample was incubated at 37° C. for one hour and then refrigerated overnight at 4° C. The samples were then centrifuged and the upper layer of serum was removed. 2 ml of tetrahydrofurane (THF) were added to 500 μl of serum for the determination of the GM1 content. The sample was stirred and centrifuged and the upper layer was stored. The precipitate was treated twice with […] of THF and 500 μl of phosphate buffer (50 mM) and centrifuged. The upper layers thus obtained were extracted with ethyl ether after separation of the aqueous phase, the organic phase was further extracted with water. The two aqueous phases were then mixed and freeze-dried. The freeze-dried product was redissolved in water and the GM1 content determined by the ELISA test.

Which results are given for monosialoganglioside GM1?
Area under curve after i.m. administration of GM1 (1st study): 127.74 µg/h/mL; Area under curve after i.m. administration of GM1 (2nd study): 134.43 µg/h/mL
